In patent US5053070A, “Pyrimidine derivatives, preparation processes thereof, herbicide containing the same, and herbicidal compositions containing the same along with other active ingredient” (Mitsui Toatsu Chemicals, Incorporated, priority 1988, dated 1991):

Tests used:
[1] = tested on: ALS (acetolactate syntase); experiment: ALS enzyme assay (Test 1); format: biochemical, pea; settings: 1,000 ppm (0.5 mg/0.5 ml)
In short: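 Partially purified ALS from dark-grown pea and barnyardgrass seedlings incubated 1 h at 30° C with pyruvate, TPP, MgCl2 and FAD. Compounds tested at 1,000 ppm (0.5 mg/0.5 ml). Acetoin formed detected colorimetrically at 525 nm via creatine/α-naphthol, relative to blank and acid-stopped controls.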

barnyardgrass = experiment: Upland soil application test (Test 2); format: in vivo; settings: 30 g ai/a, soil spray before emergence, 30 days later
In short: (§1)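 Soil-surface application of water-diluted wettable powder at 10 l per are, made one day after seeding and ahead of weed emergence. Plants stayed in the greenhouse for 30 days; injury was rated by air-dried weight versus untreated pots.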

common lambsquarters = experiment: Upland soil application test (Test 2); format: in vivo; settings: 30 g ai/a, soil spray before emergence, 30 days later
In short: as §1

foxtail meadow = experiment: Upland soil application test (Test 2); format: in vivo; settings: 30 g ai/a, soil spray before emergence, 30 days later
In short: as §1

green foxtail [2] = experiment: Upland soil application test (Test 2); format: in vivo; settings: 30 g ai/a, soil spray before emergence, 30 days later
In short: as §1

johnsongrass [3] = experiment: Upland soil application test (Test 2); format: in vivo; settings: 30 g ai/a, soil spray before emergence, 30 days later
In short: as §1

large crabgrass = experiment: Upland soil application test (Test 2); format: in vivo; settings: 30 g ai/a, soil spray before emergence, 30 days later
In short: as §1

redroot pigweed = experiment: Upland soil application test (Test 2); format: in vivo; settings: 30 g ai/a, soil spray before emergence, 30 days later
In short: as §1

cotton [4] = experiment: Upland soil application test (Test 2), crop injury; format: in vivo; settings: 30 g ai/a, soil spray before emergence, 30 days later
In short: (§2)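 Pre-emergence soil spray, greenhouse. Weed seeds mixed through upland soil; crops sown alongside. Day 1 post-sowing: wettable-powder formulation, water-diluted, applied at 10 l/are by pressure ULV sprayer. Read at 30 days as air-dried weight vs untreated pots, scored on a graded damage scale.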

peanut = experiment: Upland soil application test (Test 2), crop injury; format: in vivo; settings: 30 g ai/a, soil spray before emergence, 30 days later
In short: as §1

soybean [5] = experiment: Upland soil application test (Test 2), crop injury; format: in vivo; settings: 30 g ai/a, soil spray before emergence, 30 days later
In short: as §2

cotton [6] = experiment: Upland foliar application test (Test 3), crop injury; format: in vivo; settings: 30 g ai/a, foliar spray at 2-3 leaves, 30th day
In short: (§3)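 Steps: sow in upland soil, greenhouse; grow to 2-3 leaf stage; spray leaves with water-diluted emulsion at 5 l per are using a ULV sprayer; assess effects on day 30.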

soybean [7] = experiment: as above; format: in vivo; settings: 30 g ai/a, foliar spray at 2-3 leaves, 30th day
In short: as §3

green foxtail [8] = experiment: Upland foliar application test by mixed formulations (Test 7); format: in vivo; settings: Setaria viridis, 720 h, applied alone, 30th day, read-out: Herbicidal effects (%) Green foxtail Ea; for pest or weed control at 300 g/ha: 0.3 kg/ha; for pest or weed control at 1000 g/ha: 1 kg/ha
In short: (§4)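 Foliar spray of two-compound mixed emulsion, diluted with water, at 5 l per are via ULV sprayer onto weeds at 2–3 leaf stage in upland soil pots, greenhouse. Effect observed 30 days after spraying. Measured mixture activity (Ea) compared with Colby expected value (Ec) derived from single-ingredient growth inhibition rates.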

johnsongrass [9] = experiment: as above; format: in vivo; settings: Sorghum halepense, 720 h, applied alone, 30th day, read-out: Herbicidal effects (%) Johnsongrass Ea; for pest or weed control at 300 g/ha: 0.3 kg/ha; for pest or weed control at 1000 g/ha: 1 kg/ha
In short: as §4

morningglories = experiment: as above; format: in vivo; settings: Ipomoea, 720 h, applied alone, 30th day, read-out: Herbicidal effects (%) Morningglory Ea; for pest or weed control at 300 g/ha: 0.3 kg/ha; for pest or weed control at 1000 g/ha: 1 kg/ha
In short: as §4

Compound	Inhibitory activity (%) Pea [1] [%]	Herbicidal effects Barnyardgrass (barnyardgrass)	Herbicidal effects Common lambsquarters (common lambsquarters)	Herbicidal effects Foxtail meadow (foxtail meadow)	Herbicidal effects Green foxtail (green foxtail [2])	Herbicidal effects Johnsongrass (johnsongrass [3])	Herbicidal effects Large crabgrass (large crabgrass)	Herbicidal effects Redroot pigweed (redroot pigweed)	Injury Cotton (cotton [4])	Injury Peanut (peanut)	Injury Soybean (soybean [5])	Injury Cotton (cotton [6])	Injury Soybean (soybean [7])	pest or weed control at 300 g/ha (green foxtail [8]) [%]	pest or weed control at 300 g/ha (johnsongrass [9]) [%]	pest or weed control at 300 g/ha (morningglories) [%]	pest or weed control at 1000 g/ha (green foxtail [8]) [%]	pest or weed control at 1000 g/ha (johnsongrass [9]) [%]	pest or weed control at 1000 g/ha (morningglories) [%]
COc1cc(OC)nc(Oc2ccccc2C=NO)n1 [Compound No. 24, 2-(4,6-dimethoxy-2-pyrimidinyloxy)-benzaloxime]	0	4 (6-10 (Severe damages))	4 (6-10 (Severe damages))	5 (0-5 (Death))	5 (0-5 (Death))	5 (0-5 (Death))	4 (6-10 (Severe damages))	4 (6-10 (Severe damages))	0 (91-100 (No damages))	0 (91-100 (No damages))	0 (91-100 (No damages))	1 (71-90 (Slight damages))	1 (71-90 (Slight damages))	20	20	0			
COc1cc(OC)nc(Oc2ccccc2C=NOCC=Cc2ccccc2Cl)n1 [Compound No. 27]	12	4 (6-10 (Severe damages))	4 (6-10 (Severe damages))	5 (0-5 (Death))	5 (0-5 (Death))	5 (0-5 (Death))	5 (0-5 (Death))	5 (0-5 (Death))	0 (91-100 (No damages))	0 (91-100 (No damages))	0 (91-100 (No damages))	0 (91-100 (No damages))	0 (91-100 (No damages))	30	30	10			
COc1cc(OC)nc(Oc2ccccc2C=NOCC=Cc2ccc(Cl)cc2)n1 [Compound No. 28]	8	4 (6-10 (Severe damages))	4 (6-10 (Severe damages))	5 (0-5 (Death))	5 (0-5 (Death))	5 (0-5 (Death))	4 (6-10 (Severe damages))	4 (6-10 (Severe damages))	0 (91-100 (No damages))	0 (91-100 (No damages))	0 (91-100 (No damages))	0 (91-100 (No damages))	0 (91-100 (No damages))	30	30	0			
COc1cc(OC)nc(Oc2ccccc2C=NOCC=Cc2cccc(C)c2)n1 [Compound No. 34, 0-(3-methylcinnamyl)-2-(4,6-dimethoxy-2-pyrimidinyloxy)benzaldoxime]	0	5 (0-5 (Death))	4 (6-10 (Severe damages))	5 (0-5 (Death))	5 (0-5 (Death))	5 (0-5 (Death))	4 (6-10 (Severe damages))	4 (6-10 (Severe damages))	0 (91-100 (No damages))	0 (91-100 (No damages))	0 (91-100 (No damages))	0 (91-100 (No damages))	0 (91-100 (No damages))	30	30	0			
COc1cc(OC)nc(Oc2ccccc2C=NOCC=Cc2ccccc2C)n1 [Compound No. 39]	0	4 (6-10 (Severe damages))	4 (6-10 (Severe damages))	5 (0-5 (Death))	5 (0-5 (Death))	5 (0-5 (Death))	5 (0-5 (Death))	5 (0-5 (Death))	0 (91-100 (No damages))	0 (91-100 (No damages))	0 (91-100 (No damages))	0 (91-100 (No damages))	0 (91-100 (No damages))	50	50	10			
COc1cc(OC)nc(Oc2ccccc2C=NOC(C)C)n1 [compound 6]	0	4 (6-10 (Severe damages))	4 (6-10 (Severe damages))	5 (0-5 (Death))	5 (0-5 (Death))	5 (0-5 (Death))	4 (6-10 (Severe damages))	3 (11-40 (Medium damages))	0 (91-100 (No damages))	0 (91-100 (No damages))	0 (91-100 (No damages))	0 (91-100 (No damages))	0 (91-100 (No damages))				30	30	0
CC#CCON=Cc1ccccc1Oc1nc(OC)cc(OC)n1 [compound 10]	0	3 (11-40 (Medium damages))	3 (11-40 (Medium damages))	4 (6-10 (Severe damages))	4 (6-10 (Severe damages))	4 (6-10 (Severe damages))	3 (11-40 (Medium damages))	3 (11-40 (Medium damages))	0 (91-100 (No damages))	0 (91-100 (No damages))	0 (91-100 (No damages))	0 (91-100 (No damages))	0 (91-100 (No damages))				20	20	0
